Laboratory results: ChEMBL document CHEMBL1201862, “PubChem BioAssay data set” (2004)
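Dose response: 5 concentrations. Exposure: 48 h. Format: 96-well plates. Endpoint: linear interpolation; highest concentration if not reached. Here, GI50 denotes the concentration required for 50% inhibition of growth.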 Active and inactive are the calls of the source. Rule as the data show it: active = GI50 up to about 1.1 µM and inactive = higher.

Legend:
Assay in all cases: inhibition of tumour cell growth, NCI panel, 48 h
786-0 = test system: 786-0
HL-60 = test system: HL-60
HOP-92 = test system: HOP-92
HT-29 = test system: HT-29
IGROV-1 = test system: IGROV-1
KM12 = test system: KM12
M14 = test system: M14
NCI-H460 = test system: NCI-H460
RXF 393 = test system: RXF 393
SF-295 = test system: SF-295
SK-MEL-5 = test system: SK-MEL-5
SNB-19 = test system: SNB-19
SR = test system: SR
TK-10 = test system: TK-10
UACC-257 = test system: UACC-257
UACC-62 = test system: UACC-62
HCC 2998 = test system: HCC 2998
SK-MEL-2 = test system: SK-MEL-2

| SMILES | GI50 (786-0) | GI50 (HL-60) | GI50 (HOP-92) | GI50 (HT-29) | GI50 (IGROV-1) | GI50 (KM12) | GI50 (M14) | GI50 (NCI-H460) | GI50 (RXF 393) | GI50 (SF-295) | GI50 (SK-MEL-5) | GI50 (SNB-19) | GI50 (SR) | GI50 (TK-10) | GI50 (UACC-257) | GI50 (UACC-62) | GI50 (HCC 2998) | GI50 (SK-MEL-2) |
| --- | --- | --- | --- | --- | --- | --- | --- | --- | --- | --- | --- | --- | --- | --- | --- | --- | --- | --- |
| O=[N+]([O-])c1cc(C(F)(F)F)cc([N+](=O)[O-])c1CCl | 3.14 µM (inactive) | 1.31 µM (inactive) | 4.9 µM (inactive) | 2.14 µM (inactive) | 2.32 µM (inactive) | 2.23 µM (inactive) | 0.53 µM (active) | 5.78 µM (inactive) | 1.73 µM (inactive) | 5.78 µM (inactive) | 0.456 µM (active) | 7.35 µM (inactive) | 0.388 µM (active) | 8.53 µM (inactive) | 3.72 µM (inactive) | 0.336 µM (active) | – | – |
| Cc1ccc(C)c(NC(=O)/C(=N\NC(N)=S)C(C#N)c2ccccc2)c1 (centres undefined) | > 100 µM (inactive) | > 100 µM (inactive) | > 100 µM (inactive) | > 100 µM (inactive) | > 100 µM (inactive) | > 100 µM (inactive) | > 100 µM (inactive) | > 100 µM (inactive) | – | > 100 µM (inactive) | > 100 µM (inactive) | > 100 µM (inactive) | > 100 µM (inactive) | > 100 µM (inactive) | > 100 µM (inactive) | > 100 µM (inactive) | > 100 µM (inactive) | > 100 µM (inactive) |
| COc1cc2c(c(OC)c1OC)-c1ccc(SC)c(=O)cc1[C@@H](NCc1ccccc1[N+](=O)[O-])CC2 | 0.0246 µM (active) | 0.00313 µM (active) | 0.0257 µM (active) | 0.00391 µM (active) | 0.0135 µM (active) | 0.00406 µM (active) | 0.00546 µM (active) | 0.0168 µM (active) | 0.00286 µM (active) | 0.00826 µM (active) | 0.00411 µM (active) | 0.0246 µM (active) | – | 0.061 µM (active) | 0.00561 µM (active) | 0.00326 µM (active) | 0.0128 µM (active) | 0.0217 µM (active) |
| COc1cc(C(O)C(=O)c2nc3ccc([N+](=O)[O-])cc3nc2O)ccc1O (centres undefined) | > 100 µM (inactive) | 70.5 µM (inactive) | – | > 100 µM (inactive) | > 100 µM (inactive) | > 100 µM (inactive) | > 100 µM (inactive) | > 100 µM (inactive) | – | > 100 µM (inactive) | 81.1 µM (inactive) | > 100 µM (inactive) | > 100 µM (inactive) | > 100 µM (inactive) | > 10 µM (inactive) | 73.1 µM (inactive) | 74.1 µM (inactive) | > 100 µM (inactive) |
| CN(C)c1nc(NN)c2c(-c3ccccc3)c(-c3ccccc3)oc2n1 | > 100 µM (inactive) | – | > 100 µM (inactive) | 98.4 µM (inactive) | > 100 µM (inactive) | > 100 µM (inactive) | > 100 µM (inactive) | – | > 100 µM (inactive) | > 100 µM (inactive) | – | > 100 µM (inactive) | 72.3 µM (inactive) | > 100 µM (inactive) | > 100 µM (inactive) | 44.8 µM (inactive) | > 100 µM (inactive) | – |
| O=C1OC(CC(=O)c2ccc(F)cc2)C(Cl)=C1Cl (centres undefined) | 18.5 µM (inactive) | 24.7 µM (inactive) | 20 µM (inactive) | 18.2 µM (inactive) | 27.2 µM (inactive) | 16.7 µM (inactive) | 22.9 µM (inactive) | 21.5 µM (inactive) | 21.6 µM (inactive) | > 100 µM (inactive) | 25.5 µM (inactive) | 22.3 µM (inactive) | 27.2 µM (inactive) | 40.2 µM (inactive) | 16.9 µM (inactive) | 17 µM (inactive) | 16.5 µM (inactive) | 22.4 µM (inactive) |
| O=C(CC(C(=O)c1ccsc1)c1cccs1)c1cccs1 (centres undefined) | > 100 µM (inactive) | 56.8 µM (inactive) | > 100 µM (inactive) | 82.2 µM (inactive) | > 100 µM (inactive) | – | 59.3 µM (inactive) | 49 µM (inactive) | > 100 µM (inactive) | 37.5 µM (inactive) | 22.9 µM (inactive) | > 100 µM (inactive) | 29.6 µM (inactive) | > 100 µM (inactive) | 51.4 µM (inactive) | 75.7 µM (inactive) | > 100 µM (inactive) | > 100 µM (inactive) |
| O=C(/C=C1\Nc2ccccc2C(=O)N1c1ccccc1Cl)c1ccccc1 | > 100 µM (inactive) | 47 µM (inactive) | 17.9 µM (inactive) | 64.7 µM (inactive) | > 100 µM (inactive) | 84.1 µM (inactive) | > 100 µM (inactive) | > 100 µM (inactive) | > 100 µM (inactive) | > 100 µM (inactive) | > 100 µM (inactive) | > 100 µM (inactive) | > 100 µM (inactive) | > 100 µM (inactive) | > 100 µM (inactive) | > 100 µM (inactive) | > 100 µM (inactive) | > 100 µM (inactive) |
| COc1cccc(NC(=O)C(=O)C2C=CCS2(=O)=O)c1 (centres undefined) | > 100 µM (inactive) | > 100 µM (inactive) | – | > 100 µM (inactive) | > 100 µM (inactive) | > 100 µM (inactive) | > 100 µM (inactive) | > 100 µM (inactive) | > 100 µM (inactive) | > 100 µM (inactive) | > 100 µM (inactive) | > 100 µM (inactive) | > 100 µM (inactive) | > 100 µM (inactive) | > 100 µM (inactive) | > 100 µM (inactive) | > 100 µM (inactive) | > 100 µM (inactive) |
| O=C(/C=C/c1ccc(OCCCOc2ccc(/C=C/C(=O)c3ccc(Cl)cc3)cc2)cc1)c1ccc(Cl)cc1 | > 100 µM (inactive) | > 100 µM (inactive) | > 100 µM (inactive) | > 100 µM (inactive) | > 100 µM (inactive) | > 100 µM (inactive) | > 100 µM (inactive) | > 100 µM (inactive) | > 100 µM (inactive) | > 100 µM (inactive) | > 100 µM (inactive) | > 100 µM (inactive) | > 100 µM (inactive) | > 100 µM (inactive) | > 100 µM (inactive) | > 100 µM (inactive) | > 100 µM (inactive) | > 100 µM (inactive) |
| CC1CCC2(OC1)OC1CC3C4CCC5CC(O)CCC5(C)C4CC(=O)OC3(C)C1C2C (centres undefined) | > 100 µM (inactive) | > 100 µM (inactive) | > 100 µM (inactive) | > 100 µM (inactive) | > 100 µM (inactive) | > 100 µM (inactive) | > 100 µM (inactive) | > 100 µM (inactive) | > 100 µM (inactive) | > 100 µM (inactive) | > 100 µM (inactive) | > 100 µM (inactive) | > 100 µM (inactive) | > 100 µM (inactive) | > 100 µM (inactive) | > 100 µM (inactive) | > 100 µM (inactive) | > 100 µM (inactive) |
| [O-][n+]1c2cc3c(cc2[n+]([O-])c2c(O)cccc21)CN(CCN1CCOCC1)C3 | 16.8 µM (inactive) | 5.7 µM (inactive) | 5.7 µM (inactive) | 16 µM (inactive) | 12.7 µM (inactive) | 16.8 µM (inactive) | 49.5 µM (inactive) | 7.18 µM (inactive) | 16.1 µM (inactive) | 13.1 µM (inactive) | 56 µM (inactive) | 73.5 µM (inactive) | 2.48 µM (inactive) | 27.4 µM (inactive) | 23.4 µM (inactive) | 24.8 µM (inactive) | – | 20.7 µM (inactive) |
| COC(=O)C12C3C4C1C1C2C3C41C(=O)N(C(C)C)C(C)C (centres undefined) | > 100 µM (inactive) | > 100 µM (inactive) | > 100 µM (inactive) | > 100 µM (inactive) | > 100 µM (inactive) | > 100 µM (inactive) | > 100 µM (inactive) | > 100 µM (inactive) | – | > 100 µM (inactive) | > 100 µM (inactive) | > 100 µM (inactive) | > 100 µM (inactive) | > 100 µM (inactive) | > 100 µM (inactive) | > 100 µM (inactive) | > 100 µM (inactive) | – |
| CCNc1nc2c(=O)n(C)c(=O)n(C)c2s1 | > 100 µM (inactive) | > 100 µM (inactive) | > 100 µM (inactive) | > 100 µM (inactive) | > 100 µM (inactive) | > 100 µM (inactive) | > 100 µM (inactive) | > 100 µM (inactive) | > 100 µM (inactive) | > 100 µM (inactive) | – | > 100 µM (inactive) | – | > 100 µM (inactive) | > 100 µM (inactive) | > 100 µM (inactive) | > 100 µM (inactive) | > 100 µM (inactive) |
| CC1=CC(=O)N(c2c(C)cccc2Cl)C(C)N1 (centres undefined) | > 100 µM (inactive) | > 100 µM (inactive) | > 100 µM (inactive) | > 100 µM (inactive) | > 100 µM (inactive) | > 100 µM (inactive) | > 100 µM (inactive) | > 100 µM (inactive) | > 100 µM (inactive) | > 100 µM (inactive) | > 100 µM (inactive) | > 100 µM (inactive) | – | > 100 µM (inactive) | > 100 µM (inactive) | > 100 µM (inactive) | > 100 µM (inactive) | > 100 µM (inactive) |
| COc1cccc(NC(=O)C(C)(C)C)c1C=O | > 100 µM (inactive) | 26.7 µM (inactive) | 54 µM (inactive) | 40.7 µM (inactive) | 56.1 µM (inactive) | 42.3 µM (inactive) | 70.8 µM (inactive) | > 100 µM (inactive) | – | 67.6 µM (inactive) | 88.1 µM (inactive) | 51.2 µM (inactive) | 26.5 µM (inactive) | 35 µM (inactive) | 65.8 µM (inactive) | 74.3 µM (inactive) | 92 µM (inactive) | 73.6 µM (inactive) |
